The experiment concerns the target recombinant human GST-Syk (Homo sapiens (Human), UniProt P43405). The experiment is described as follows: Homogeneous Time-Resolved Fluorescence (HTRF) assay for the recombinant human Syk enzyme. It is filed as biochemical. The following applies: recombinant human GST-Syk 5 pM, ATP 25 μM, read-out: rhSyk IC50. In short, it runs like this:
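Recombinant GST-hSyk fusion protein kinase activity was read by HTRF. Reactions were started with biotinylated substrate peptide at 250 nM final, Mg 5 mM final and ATP 25 μM final. Potency derived from inhibition of substrate phosphorylation.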

As usually defined, the IC50 is the concentration needed to halve the response being measured. In the case of `Cc1cc(Nc2cc(C(F)(F)F)ccn2)nc(-c2ccc(C3(O)CCCc4cc(C(=O)O)ccc43)nc2)c1` (stereo not shown) [Example 1-21], the half-maximal inhibitory concentration (IC50) was found to be 2 nM.

Turning to `Cc1cc(Nc2cc(C(F)(F)F)ccn2)nc(-c2ccc(C3(O)CCCc4cc(C(=O)O)ccc43)nc2)c1` (stereo not shown) [Example 1-22], the IC50 came to 1 nM.

For `Cc1cc(Nc2cc(C(F)(F)F)ccn2)nc(-c2ccc(C3(O)CCC(C(=O)O)C(C)(C)C3)nc2)c1` (stereo not shown) [Example 1-23], the half-inhibitory concentration (IC50) turned out to be 29 nM.

For the compound `Cc1cc(Nc2cc(C(F)(F)F)ccn2)nc(-c2ccc(C3(O)CCC(C(=O)O)C(C)(C)C3)nc2)c1` (stereo not shown) [Example 1-24], the IC50 was 8 nM.

In the case of `Cc1cc(Nc2cc(C(F)(F)F)ccn2)nc(-c2ccc(C3(O)CCC(C(=O)O)C(C)(C)C3)nc2)c1` (stereo not shown) [Example 1-25], the IC50 was 1 nM.

With `Cc1cc(Nc2cc(C(F)(F)F)ccn2)nc(-c2ccc(C3(O)CCC(C(=O)O)C(C)(C)C3)nc2)c1` (stereo not shown) [Example 1-26], the IC50 was determined as 1 nM.

`CCC(O)(c1ccc(-c2cc(C)cc(Nc3cc(C(F)(F)F)ccn3)n2)cn1)C1CCC(C(=O)O)CC1` (stereo not shown) [Example 1-30]: the IC50 was under 0.5 nM.

On to `Cc1cc(Nc2cc(C(F)(F)F)ccn2)nc(-c2ccc(C(O)(C3CCC(C(=O)O)CC3)C3CC3)nc2)c1` (stereo not shown) [Example 1-31], for which the half-inhibitory concentration (IC50) is under 0.5 nM.

Turning to `Cc1cc(Nc2cc(C3CC3)ccn2)nc(-c2ccc(C(C)(O)C3CCC(C(=O)O)CC3)nc2)c1` (stereo not shown) [Example 1-32], the 50% inhibitory concentration (IC50) was found to be 1 nM.

In the case of `CC(O)(c1ccc(-c2cc(C3CC3)cc(Nc3cc(C(F)F)ccn3)n2)cn1)C1CCC(C(=O)O)CC1` (stereo not shown) [Example 1-33], the IC50 was under 0.5 nM.

`CC(C)(O)c1cc(Nc2cc(C(F)F)ccn2)nc(-c2ccc(C(C)(O)C3CCC(C(=O)O)CC3)nc2)c1` (stereo not shown) [Example 1-34]: the half-maximal inhibitory concentration (IC50) amounted to 1 nM.

For `Cc1cc(Nc2cc(C(F)F)ccn2)nc(-c2ccc(C(C)(O)C3CCC(C(=O)O)C(C)C3)nc2)c1` (stereo not shown) [Example 1-35], the IC50 was under 0.5 nM.

Regarding `Nc1cc(Nc2cc(C(F)(F)F)ccn2)nc(-c2ccc(NC3CCNC3=O)nc2)c1` (stereo not shown) [Example 2, 3-[(4-Amino-6-{[4-(trifluoromethyl)pyridin-2-yl]amino}-2,3′-bipyridin-6′-yl)amino]pyrrolidin-2-one], the concentration for half-maximal inhibition (IC50) is 4 nM.

In the case of `Cc1cc(Nc2cc(C(F)(F)F)ccn2)nc(-c2ccc(N3CCCC(NC(=O)OC(C)(C)C)C3)nc2)c1` (stereo not shown) [Example 2-2], the half-maximal inhibitory concentration (IC50) was 271 nM.

As for `Cc1cc(Nc2cc(C(F)(F)F)ccn2)nc(-c2ccc(N3CCC(NC(=O)OC(C)(C)C)C3)nc2)c1` (stereo not shown) [Example 2-3], the half-maximal inhibitory concentration (IC50) amounted to 248 nM.

In the case of `Cc1cc(Nc2cc(C(F)(F)F)ccn2)nc(-c2ccc(NC3CCN(C(=O)OC(C)(C)C)CC3)nc2)c1` [Example 2-4], the IC50 was 91 nM.

For `Cc1cc(Nc2cc(C(F)(F)F)ccn2)nc(-c2ccc(NC3CCNC3=O)nc2)c1` (stereo not shown) [Example 2-9], the IC50 turned out to be 4 nM.

For the compound `Cc1cc(Nc2cc(C(F)(F)F)ccn2)nc(-c2ccc(N3CCCC3C(=O)O)nc2)c1` (stereo not shown) [Example 2-10], the IC50 was 3 nM.

With `Cc1cc(Nc2cc(C(F)(F)F)ccn2)nc(-c2ccc(N3CCC3C(=O)O)nc2)c1` (stereo not shown) [Example 2-11], the 50% inhibitory concentration (IC50) worked out at 3 nM.

For `Cc1cc(Nc2cc(C(F)(F)F)ccn2)nc(-c2ccc(NC3CCNC3=O)nc2)c1` (stereo not shown) [Example 2-16], the 50% inhibitory concentration (IC50) is 6 nM.

For the compound `Cc1cc(Nc2cc(C(F)(F)F)ccn2)nc(-c2ccc(N3CCCC3C(=O)O)nc2)c1` (stereo not shown) [Example 2-17], the IC50 is 39 nM.

As to `Cc1cc(Nc2cc(C(F)(F)F)ccn2)nc(-c2ccc(N3CCC3C(=O)O)nc2)c1` (stereo not shown) [Example 2-18], the IC50 worked out at 33 nM.

`Cc1cc(Nc2cc(C(F)(F)F)ccn2)nc(-c2ccc(NC(C)(C)C(=O)O)nc2)c1` [Example 2-19]: the half-inhibitory concentration (IC50) worked out at 19 nM.

`Cc1cc(Nc2cc(C(F)(F)F)ccn2)nc(-c2ccc(N3CCN(C(=O)N4CCCC(C(=O)O)C4)CC3)nc2)c1` (stereo not shown) [Example 2-20]: the IC50 came out at 2 nM.

`Cc1cc(Nc2cc(C(F)(F)F)ccn2)nc(-c2ccc(N3CC(C4CCCC(C(=O)O)C4)C3)nc2)c1` (stereo not shown) [Example 2-21]: the IC50 amounted to 2 nM.

Consider `Cc1cc(Nc2cc(C(F)(F)F)ccn2)nc(-c2ccc(N3CC(C4CCC(C(=O)O)CC4)C3)nc2)c1` (stereo not shown) [Example 2-22], for which the IC50 turned out to be 3 nM.

Take `Cc1cc(Nc2cc(C(F)(F)F)ccn2)nc(-c2ccc(NCC3CCC(C(=O)O)CC3)nc2)c1` (stereo not shown) [Example 2-23]: the 50% inhibitory concentration (IC50) amounted to 3 nM.

For the compound `Cc1cc(Nc2cc(C(F)(F)F)ccn2)nc(-c2ccc(NC3CCC(C(=O)O)CC3)nc2)c1` (stereo not shown) [Example 2-24], the IC50 is 1 nM.

For `Cc1cc(Nc2cc(C(F)(F)F)ccn2)nc(-c2ccc(NC3CCC(C(=O)O)CC3)nc2)c1` (stereo not shown) [Example 2-25], the concentration for half-maximal inhibition (IC50) was 7 nM.

With `Cc1cc(Nc2cc(C(F)(F)F)ccn2)nc(-c2ccc(N3CCC(C(=O)N4CCC(C(=O)O)CC4)CC3)nc2)c1` [Example 2-26], the half-inhibitory concentration (IC50) was 3 nM.

Turning to `Cc1cc(Nc2cc(C(F)(F)F)ccn2)nc(-c2ccc(N3CCCC(C(=O)N4CCCC(C(=O)O)C4)C3)nc2)c1` (stereo not shown) [Example 2-27], the IC50 was 2 nM.

Regarding `Cc1cc(Nc2cc(C(F)(F)F)ccn2)nc(-c2ccc(N3CCCC(C(=O)N4CCCC(C(=O)O)C4)C3)nc2)c1` (stereo not shown) [Example 2-28], the IC50 came to 3 nM.

Turning to `Cc1cc(Nc2cc(C(F)(F)F)ccn2)nc(-c2ccc(N3CCC4CCC(C(=O)O)CC4C3)nc2)c1` (stereo not shown) [Example 2-29], the IC50 amounted to 6 nM.

With `Cc1cc(Nc2cc(C(F)(F)F)ccn2)nc(-c2ccc(N3CCOCC3)nc2)c1` [Example 2-30], the IC50 amounted to 14 nM.

Take `Cc1cc(Nc2cc(C(F)(F)F)ccn2)nc(-c2ccc(OC[C@H]3CC[C@H](C(=O)O)CC3)nc2)c1` [Example 3, trans-4-{[(4-Methyl-6-{[4-(trifluoromethyl)pyridin-2-yl]amino}-2,3′-bipyridin-6′-yl)oxy]methyl}cyclohexanecarboxylic acid]: the IC50 is 3 nM.

On to `Cc1cc(Nc2cc(C(F)(F)F)ccn2)nc(-c2ccc(N3CCC(C4CCCCC4C(=O)O)CC3)nc2)c1` (stereo not shown) [Example 3-1], for which the 50% inhibitory concentration (IC50) came to 3 nM.

Regarding `Cc1cc(Nc2cc(C(F)(F)F)ccn2)nc(-c2ccc(NC3CCN(C(=O)c4cnc5ccc(F)cc5c4)CC3)nc2)c1` [Example 4, (6-Fluoroquinolin-3-yl)(4-(4-methyl-6-(4-(trifluoromethyl)pyridin-2-ylamino)-2,3′-bipyridin-6′-ylamino)piperidin-1-yl)methanone], the IC50 was 8 nM.

`Cc1cc(Nc2cc(C(F)(F)F)ccn2)nc(-c2ccc(NC3CCN(C(=O)Cc4ccc(-c5cn[nH]c5)cc4)CC3)nc2)c1` [Example 4-1]: the IC50 was determined as 9 nM.

With `Cc1cc(Nc2cc(C(F)(F)F)ccn2)nc(-c2ccc(NC3CCN(C(=O)Cc4ccc5ccn(C)c5c4)CC3)nc2)c1` [Example 4-2], the 50% inhibitory concentration (IC50) turned out to be 1 nM.

Turning to `Cc1cc(Nc2cc(C(F)(F)F)ccn2)nc(-c2ccc(NC3CCN(C(=O)Cc4ccc5cn[nH]c5c4)CC3)nc2)c1` [Example 4-3], the IC50 was found to be 8 nM.

In the case of `Cc1cc(Nc2cc(C(F)(F)F)ccn2)nc(-c2ccc(NC3CCN(C(=O)c4ccc5c(c4)C(=O)NC5)CC3)nc2)c1` [Example 4-4], the concentration for half-maximal inhibition (IC50) stood at 1 nM.

`Cc1cc(Nc2cc(C(F)(F)F)ccn2)nc(-c2ccc(NC3CCN(C(=O)c4ccc5c(c4)CNC5=O)CC3)nc2)c1` [Example 4-5]: the IC50 came to 2 nM.

Turning to `Cc1cc(Nc2cc(C(F)(F)F)ccn2)nc(-c2ccc(NC3CCN(C(=O)c4[nH]c5ccccc5c4C)CC3)nc2)c1` [Example 4-6], the IC50 amounted to 22 nM.

In the case of `Cc1cc(Nc2cc(C(F)(F)F)ccn2)nc(-c2ccc(NC3CCN(C(=O)c4ccc5[nH]cc(C)c5c4)CC3)nc2)c1` [Example 4-7], the concentration for half-maximal inhibition (IC50) turned out to be 10 nM.

In the case of `Cc1cc(Nc2cc(C(F)(F)F)ccn2)nc(-c2ccc(NC3CCN(C(=O)Cc4n[nH]c5ccccc45)CC3)nc2)c1` [Example 4-8], the IC50 stood at 7 nM.

Regarding `Cc1cc(Nc2cc(C(F)(F)F)ccn2)nc(-c2ccc(NC3CCN(C(=O)c4cccc(-c5cn[nH]c5)c4)CC3)nc2)c1` [Example 4-9], the half-maximal inhibitory concentration (IC50) is 12 nM.

Turning to `Cc1cc(Nc2cc(C(F)(F)F)ccn2)nc(-c2ccc(NC3CCN(C(=O)c4cc(-c5ccccc5)n[nH]4)CC3)nc2)c1` [Example 4-10], the IC50 was 14 nM.

Turning to `Cc1cc(Nc2cc(C(F)(F)F)ccn2)nc(-c2ccc(NC3CCN(C(=O)CCN4CCCC4=O)CC3)nc2)c1` [Example 4-11], the IC50 was 2 nM.

For the compound `Cc1cc(Nc2cc(C(F)(F)F)ccn2)nc(-c2ccc(NC3CCN(C(=O)Cc4cccc5ncccc45)CC3)nc2)c1` [Example 4-12], the IC50 amounted to 4 nM.

Regarding `Cc1cc(Nc2cc(C(F)(F)F)ccn2)nc(-c2ccc(NC3CCN(C(=O)c4cccc5ncccc45)CC3)nc2)c1` [Example 4-13], the half-maximal inhibitory concentration (IC50) was found to be 9 nM.

On to `Cc1cc(Nc2cc(C(F)(F)F)ccn2)nc(-c2ccc(NC3CCN(C(=O)c4ccc5sc(C)nc5c4)CC3)nc2)c1` [Example 4-14], for which the IC50 was 6 nM.

For `Cc1cc(Nc2cc(C(F)(F)F)ccn2)nc(-c2ccc(NC3CCN(C(=O)c4ccc5cc[nH]c5c4)CC3)nc2)c1` [Example 4-15], the 50% inhibitory concentration (IC50) stood at 7 nM.

With `CC(=O)N1CCC(Nc2ccc(-c3cc(C)cc(Nc4cc(C(F)(F)F)ccn4)n3)cn2)CC1` [Example 4-16], the concentration for half-maximal inhibition (IC50) came out at 4 nM.

Turning to `Cc1cc(Nc2cc(C(F)(F)F)ccn2)nc(-c2ccc(N3CCCC(NC(=O)c4ccc5cc[nH]c5c4)C3)nc2)c1` (stereo not shown) [Example 4-17], the IC50 is 32 nM.

Regarding `CC(=O)NC1CCCN(c2ccc(-c3cc(C)cc(Nc4cc(C(F)(F)F)ccn4)n3)cn2)C1` (stereo not shown) [Example 4-18], the half-maximal inhibitory concentration (IC50) was determined as 14 nM.

In the case of `Cc1cc(Nc2cc(C(F)(F)F)ccn2)nc(-c2ccc(NC3CCN(C(=O)c4cccc(-c5ccncc5)c4)CC3)nc2)c1` [Example 4-19], the IC50 was 12 nM.

In the case of `Cc1cc(Nc2cc(C(F)(F)F)ccn2)nc(-c2ccc(NC3CCN(C(=O)c4ccccc4N4CCN(C)CC4)CC3)nc2)c1` [Example 4-20], the concentration for half-maximal inhibition (IC50) was determined as 4 nM.

Take `Cc1cc(Nc2cc(C(F)(F)F)ccn2)nc(-c2ccc(NC3CCN(C(=O)c4cc5cccc(C)c5nc4C)CC3)nc2)c1` [Example 4-21]: the IC50 was 89 nM.

Values taken from patent US9145391B2, “Bipyridylaminopyridines as Syk inhibitors” (Merck Sharp & Dohme Corp., priority 2011, dated 2015).
